Each compound was assayed against human NaV1.8 ion channel (Homo sapiens (Human), UniProt Q9Y5Y9) (assay: Compound inhibition activity on human NaV1.8 ion channel in HEK293 cells (whole-cell patch clamp)). Conditions: 100 nm concentration; HEK293 cells, resting protocol.
Format: cell-based
Protocol: Test Case 1: Compound Inhibition Activity on Human NaV1.8 Ion Channel in HEK293 Cells
The final concentrations of the test compounds are prepared on the same day and then dissolved in extracellular solution. […] The intracellular solution (mM) contains: Aspartic acid, 140; MgCl2, 2; EGTA 11; HEPES, 10; pH 7.2 (CsOH titration). All test solutions contain 1 μM TTX.
The test solution are stored at a concentration of 3 mM in dimethyl sulfoxide (DMSO). The solutions will be dissolved in extracellular solution on the day of testing and prepared to the required concentration.
All experiments were performed at room temperature. Each cell itself is taken as the corresponding control.
At least one cell is tested per concentration.
HEK293 cell steady expressing NaV1.8 ion channel.
The intracellular fluid (mM) contains: Aspartic acid, 140; MgCl2, 2; EGTA 11; HEPES, 10; pH 7.2 (CsOH titration). […] Electrodes are drawn with PC-10 (Narishige, Japan). Recording is performed with whole-cell diaphragm clamp.
The cells are clamped at −80 mV and then depolarized to 10 mV with a sustained 10 ms square wave to give a Nav1.8 current. This procedure is repeated every 5 seconds.

Chain of human NaV1.8 ion channel (Q9Y5Y9 whole entry): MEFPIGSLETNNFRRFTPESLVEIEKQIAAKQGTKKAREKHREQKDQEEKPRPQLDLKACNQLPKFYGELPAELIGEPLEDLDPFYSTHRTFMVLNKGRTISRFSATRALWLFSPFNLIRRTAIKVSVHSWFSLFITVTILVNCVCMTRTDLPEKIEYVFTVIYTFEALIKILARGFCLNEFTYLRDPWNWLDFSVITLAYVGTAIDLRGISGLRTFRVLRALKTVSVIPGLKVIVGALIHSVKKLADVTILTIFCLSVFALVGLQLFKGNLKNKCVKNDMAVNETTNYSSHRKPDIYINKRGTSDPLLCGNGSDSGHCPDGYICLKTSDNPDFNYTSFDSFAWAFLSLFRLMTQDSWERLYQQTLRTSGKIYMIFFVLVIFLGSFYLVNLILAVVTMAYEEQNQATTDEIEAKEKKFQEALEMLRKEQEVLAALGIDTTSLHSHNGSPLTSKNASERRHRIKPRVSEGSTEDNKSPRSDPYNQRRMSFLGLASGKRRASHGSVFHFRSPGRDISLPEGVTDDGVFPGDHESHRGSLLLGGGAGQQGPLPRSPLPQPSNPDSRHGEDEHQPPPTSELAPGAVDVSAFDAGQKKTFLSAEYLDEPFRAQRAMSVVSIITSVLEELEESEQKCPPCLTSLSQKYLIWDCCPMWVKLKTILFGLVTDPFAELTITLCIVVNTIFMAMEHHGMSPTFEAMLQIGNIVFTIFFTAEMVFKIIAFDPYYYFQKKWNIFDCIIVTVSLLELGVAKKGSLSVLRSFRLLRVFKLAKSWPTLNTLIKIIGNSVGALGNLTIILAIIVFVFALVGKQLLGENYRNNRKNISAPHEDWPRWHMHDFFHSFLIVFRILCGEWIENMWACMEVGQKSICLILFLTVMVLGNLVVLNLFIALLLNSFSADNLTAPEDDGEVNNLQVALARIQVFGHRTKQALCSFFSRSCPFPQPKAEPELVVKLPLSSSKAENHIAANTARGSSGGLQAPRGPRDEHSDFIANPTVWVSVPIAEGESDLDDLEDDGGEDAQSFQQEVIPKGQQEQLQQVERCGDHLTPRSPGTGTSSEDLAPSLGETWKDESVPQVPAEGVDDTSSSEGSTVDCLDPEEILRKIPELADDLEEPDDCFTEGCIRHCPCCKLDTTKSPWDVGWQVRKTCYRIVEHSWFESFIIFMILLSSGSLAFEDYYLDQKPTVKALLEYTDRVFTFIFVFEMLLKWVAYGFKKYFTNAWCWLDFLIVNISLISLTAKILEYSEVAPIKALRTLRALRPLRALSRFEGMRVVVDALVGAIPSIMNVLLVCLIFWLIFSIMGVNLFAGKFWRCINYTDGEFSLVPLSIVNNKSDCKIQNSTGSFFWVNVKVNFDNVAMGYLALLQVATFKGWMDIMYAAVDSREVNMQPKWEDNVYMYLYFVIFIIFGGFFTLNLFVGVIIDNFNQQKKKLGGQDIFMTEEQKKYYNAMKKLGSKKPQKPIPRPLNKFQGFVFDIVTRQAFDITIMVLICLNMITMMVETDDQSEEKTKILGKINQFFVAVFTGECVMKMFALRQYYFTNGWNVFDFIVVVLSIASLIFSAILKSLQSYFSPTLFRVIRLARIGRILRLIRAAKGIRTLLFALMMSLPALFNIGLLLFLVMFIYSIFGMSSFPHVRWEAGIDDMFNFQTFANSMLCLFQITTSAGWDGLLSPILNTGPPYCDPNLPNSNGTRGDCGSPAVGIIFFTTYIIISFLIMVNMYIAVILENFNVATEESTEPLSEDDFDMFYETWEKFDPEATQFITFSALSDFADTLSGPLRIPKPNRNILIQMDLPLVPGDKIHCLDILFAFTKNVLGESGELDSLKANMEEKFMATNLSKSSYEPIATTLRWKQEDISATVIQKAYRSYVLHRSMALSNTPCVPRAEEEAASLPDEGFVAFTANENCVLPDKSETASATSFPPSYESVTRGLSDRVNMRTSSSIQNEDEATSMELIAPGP

Row | Structure (SMILES) | Inhibition ratio of Nav1.8 (Activity of inhibition)
1 | Cc1cc(F)ccc1Oc1ccc(C(F)(F)F)cc1C(=O)Nc1ccc(F)c(C2CCCN2)c1 (stereo not shown) [Example 15, 2-(4-fluoro-2-methylphenoxy)-N-(4-fluoro-3-(pyrrolidin-2-yl)phenyl)-5-(trifluoromethyl) benzamide] | C (50 >C >= 20)

Same assay, conditions: 100 nm concentration; HEK293 cells, resting protocol; read-out: Inhibition ratio of Nav1.8 (Activity of inhibition)

Row | inhibition at 0.1 µM | Structure (SMILES)
2 | 50 to 80% | Cc1cc(F)ccc1Oc1ccc(C(F)(F)F)cc1C(=O)Nc1ccc(F)c(C(C)N)c1 (stereo not shown) [Example 14, N-(3-(1-aminoethyl)-4-fluorophenyl)-2-(4-fluoro-2-methylphenoxy)-5-(trifluoromethyl) benzamide]
3 | 50 to 80% | Cc1cc(F)ccc1Oc1cc(C2CC2)c(C(F)(F)F)cc1C(=O)Nc1ccc(F)c(C(C)CCN)c1 (stereo not shown) [Example 29, N-(3-(4-Aminobutan-2-yl)-4-fluorophenyl)-4-cyclopropyl-2-(4-fluoro-2-methylphenoxy)-5-(trifluoromethyl) benzamide]
4 | > 80% | Cc1cc(F)ccc1Oc1cc(C2CC2)c(C(F)(F)F)cc1C(=O)Nc1ccc(F)c(C(N)CO)c1 (stereo not shown) [Example 11, N-(3-(1-Amino-2-hydroxyethyl)-4-fluorophenyl)-4-cyclopropyl-2-(4-fluoro-2-methylphenoxy)-5-(trifluoromethyl) benzamide]
5 | 20 to 50% | Cc1cc(F)ccc1Oc1ccc(C(F)(F)F)cc1C(=O)Nc1ccc(F)c(C(O)C(N)=O)c1 (stereo not shown) [Example 26, N-(3-(2-Amino-1-hydroxy-2-oxoethyl)-4-fluorophenyl)-2-(4-fluoro-2-methylphenoxy)-5-(trifluoromethyl) benzamide]
6 | > 80% | Cc1cc(F)ccc1Oc1cc(C2CC2)c(C(F)(F)F)cc1C(=O)Nc1ccc(F)c(C(N)CCN)c1 (stereo not shown) [Example 24, 4-Cyclopropyl-N-(3-(1,3-diaminopropyl)-4-fluorophenyl)-2-(4-fluoro-2-methylphenoxy)-5-(trifluoromethyl) benzamide]
7 | 50 to 80% | Cc1cc(F)ccc1Oc1ccc(C(F)(F)F)cc1C(=O)Nc1ccc(F)c(CN)c1 [Example 12, N-(3-(Aminomethyl)-4-fluorophenyl)-2-(4-fluoro-2-methylphenoxy)-5-(trifluoromethyl) benzamide]
8 | 50 to 80% | Cc1cc(F)ccc1Oc1ccc(C(F)(F)F)cc1C(=O)Nc1ccnc(CN)c1 [Example 40]
9 | > 80% | CNC(C(N)=O)c1cc(NC(=O)c2cc(C(F)(F)F)c(C3CC3)cc2Oc2ccc(F)cc2C)ccc1F (stereo not shown) [Example 10, N-(3-(2-amino-1-(methylamino)-2-oxoethyl)-4-fluorophenyl)-4-cyclopropyl-2-(4-fluoro-2-methylphenoxy)-5-(trifluoromethyl) benzamide]
10 | > 80% | Cc1cc(F)ccc1Oc1cc(C2CC2)c(C(F)(F)F)cc1C(=O)Nc1ccc(F)c(C(N)C(F)CO)c1 (stereo not shown) [Example 22, N-(3-(1-Amino-2-fluoro-3-hydroxypropyl)-4-fluorophenyl)-4-cyclopropyl-2-(4-fluoro-2-methylphenoxy)-5-(trifluoromethyl) benzamide]
11 | 20 to 50% | Cc1cc(F)ccc1Oc1ccc(C(F)(F)F)cc1C(=O)Nc1ccc(F)c(CNCC(N)=O)c1 [Example 13]

Same assay, conditions: 100 nm concentration; HEK293 cells, resting protocol; read-out: Inhibition ratio of compounds against Nav1.8 (Activity of inhibition)

Row | Structure (SMILES) | inhibition at 0.1 µM
12 | Cc1cc(F)ccc1Oc1cc(C2CC2)c(C(F)(F)F)cc1C(=O)Nc1ccc(F)c(OCC2CCCN2)c1 (stereo not shown) [Example 68] | 20 to 50%
13 | Cc1cc(F)ccc1Oc1cc(C2CC2)c(C(F)(F)F)cc1C(=O)Nc1ccc(F)c(OCC(O)CNC(C)(C)C)c1 (stereo not shown) [Example 77] | > 80%
14 | Cc1cc(F)ccc1Oc1cc(C2CC2)c(C(F)(F)F)cc1C(=O)Nc1ccc(F)c(C2CCNC(=O)N2)c1 (stereo not shown) [Example 51, 4-Cyclopropyl-2-(4-fluoro-2-methylphenoxy)-N-(4-fluoro-3-(2-oxohexahydropyrimidin-4-yl)phenyl)-5-(trifluoromethyl) benzamide] | > 80%
15 | Cc1cc(F)ccc1Oc1cc(C2CC2)c(C(F)(F)F)cc1C(=O)Nc1ccc(F)c(OCC(O)C(F)(F)F)c1 (stereo not shown) [Example 60, 4-cyclopropyl-2-(4-fluoro-2-methylphenoxy)-N-(4-fluoro-3-(3,3,3-trifluoro-2-hydroxypropoxy)phenyl)-5-(trifluoromethyl) benzamide] | < 20%
16 | Cc1cc(F)ccc1Oc1cc(C2CC2)c(C(F)(F)F)cc1C(=O)Nc1ccc(F)c(OCCNS(C)(=O)=O)c1 [Example 59, 4-cyclopropyl-2-(4-fluoro-2-methylphenoxy)-N-(4-fluoro-3-(2-(methylsulfonamido)ethoxy)phenyl)-5-(trifluoromethyl) benzamide] | 20 to 50%
17 | Cc1cc(F)ccc1Oc1cc(C2CC2)c(C(F)(F)F)cc1C(=O)Nc1ccc(F)c(OCC(O)CNC(C)C)c1 (stereo not shown) [Example 67] | > 80%
18 | Cc1cc(F)ccc1Oc1cc(C2CC2)c(C(F)(F)F)cc1C(=O)Nc1ccc(F)c(C(N)CC(C)N)c1 (stereo not shown) [Example 46, 4-Cyclopropyl-N-(3-(1,3-diaminobutyl)-4-fluorophenyl)-2-(4-fluoro-2-methylphenoxy)-5-(trifluoromethyl) benzamide] | > 80%
19 | Cc1cc(F)ccc1Oc1cc(C2CC2)c(C(F)(F)F)cc1C(=O)Nc1ccc(F)c(O)c1 [Example 56, 4-cyclopropyl-2-(4-fluoro-2-methylphenoxy)-N-(4-fluoro-3-hydroxyphenyl)-5-(trifluoromethyl) benzamide] | 50 to 80%
20 | Cc1cc(F)ccc1Oc1cc(C2CC2)c(C(F)(F)F)cc1C(=O)Nc1ccc(F)c(C2CCNC(=O)CN2)c1 (stereo not shown) [Example 50] | 20 to 50%
21 | Cc1cc(F)ccc1Oc1cc(C2CC2)c(C(F)(F)F)cc1C(=O)Nc1ccc(F)c(C(C)CC(N)C(F)(F)F)c1 (stereo not shown) [Example 53, N-(3-(4-Amino-5,5,5-trifluoropentan-2-yl)-4-fluorophenyl)-4-cyclopropyl-2-(4-fluoro-2-methylphenoxy)-5-(trifluoromethyl) benzamide] | < 20%

The remaining lines, values ahead:

Row | inhibition at 0.1 µM | Structure (SMILES)
22 | 50 to 80% | CC(=O)NCC(O)COc1cc(NC(=O)c2cc(C(F)(F)F)c(C3CC3)cc2Oc2ccc(F)cc2C)ccc1F (stereo not shown) [Example 81]
23 | 20 to 50% | Cc1cc(F)ccc1Oc1cc(C2CC2)c(C(F)(F)F)cc1C(=O)Nc1ccc(F)c(OCC(O)CN2CCCC2)c1 (stereo not shown) [Example 79]
24 | > 80% | COc1cc(F)ccc1Oc1cc(C(F)(F)F)c(Cl)cc1C(=O)Nc1ccnc(OC[C@H](O)CO)c1 [Example 120]
25 | 20 to 50% | Cc1cc(F)ccc1Oc1cc(C(F)(F)F)ccc1C(=O)Nc1cnnc(OC[C@H](O)CO)c1 [Example 109]
26 | 50 to 80% | Cc1cc(F)ccc1Oc1cc(C2CC2)c(C(F)(F)F)cc1C(=O)Nc1ccc(F)c(OCC(O)CNC23CC4CC(CC(C4)C2)C3)c1 (stereo not shown) [Example 94]
27 | 50 to 80% | Cc1cc(F)ccc1Oc1cc(C2CC2)c(C(F)(F)F)cc1C(=O)Nc1ccc(F)c(OCC(=O)NC2(C(F)(F)F)CC2)c1 [Example 89]
28 | 20 to 50% | Cc1cc(F)ccc1Oc1cc(C2CC2)c(C(F)(F)F)cc1C(=O)Nc1ccc(F)c(OC2CCC(CN)OC2)c1 (stereo not shown) [Example 85]
29 | 50 to 80% | Cc1cc(F)ccc1Oc1cc(C2CC2)c(C(F)(F)F)cc1C(=O)Nc1ccc(F)c(OCC2CNCCO2)c1 (stereo not shown) [Example 80]
30 | > 80% | Cc1cc(F)ccc1Oc1cc(C(F)(F)F)c(Cl)cc1C(=O)Nc1ccnc(OCC(O)CO)c1 (stereo not shown) [Example 103]
31 | 20 to 50% | Cc1cc(F)ccc1Oc1cc(C2CC2)c(C(F)(F)F)cc1C(=O)Nc1ccc(F)c(OCC(O)CNC2(C(=O)O)CC2)c1 (stereo not shown) [Example 86]
